According to patent US10844141B2, “Process for obtaining polysaccharides from jatoba (Hymenea courbaril l ) seeds, cosmetic composition comprising said polysaccharides and uses thereof” (NATURA COSMÉTICOS S.A., priority 2008, dated 2020):
Where “and” joins values, the source holds several entries; their conditions need not be identical. Equal entries are not always repeated.

Columns and labels:
[1] = test system: human skin fibroblasts in primary culture; experiment: Cell proliferation by neutral red staining (cell viability); format: cell-based; settings: TGF positive control, 96 hours of incubation, control = 100
Experimental: (§1) Assays were carried out to assess the potential of the polysaccharides obtained in accordance with the present invention in promoting cell proliferation (the increase in the number of cells in relation to a control group not treated with the active ingredient) by analyzing cell viability through neutral red staining. Another object of the assays was to assess the procollagen potential of active ingredients (collagen in excess produced by the cells treated with the active ingredient in relation to the untreated control cells), by detecting the collagen in the culture supernatant through the sirius red stain.
a) Whether or not the presence of a specific active ingredient in the cell culture, for one or more periods, results in an increase in the number of cells in relation to the control group (cells not treated with the same active ingredient). The number of cells is estimated as a function of the cell viability rate, which is monitored by the incubation of fibroblasts with the vital stain neutral red at the end of the assay period (96 h). This stain is incorporated into living cells so that the cell viability rate is given by the intensity of the stain absorbed by the cells in a directly proportional ratio. The colorimetric reading is carried out in a spectrophotometer, at the wavelength of 540 nm.

[2] = test system: human skin fibroblasts in primary culture; experiment: Procollagen potential / collagen synthesis by sirius red stain in culture supernatant; format: cell-based; settings: TGF positive control, 96 hours; for Normalized Collagen (%) (increase in collagen synthesis): control = 0.00
Experimental: as §1
b) Whether or not the presence of the active ingredient induces the cells to produce more collagen per se. To this end, dermis-derived human fibroblasts are incubated with the […](TGF-β), known to induce collagen synthesis and secretion (positive control). Simultaneously, other fibroblasts under the same condition are incubated with the active ingredient being tested. The collagen is identified by the sirius red stain (picrosirius solution), which has affinity for procollagen and collagen molecules. The procollagen potential of each active ingredient is identified by the increase in optical density (absorbance 540 nm filter) measured after the dissolution of the pigments previously absorbed by the collagen present in the culture supernatants.

In the case of tumor growth factor-β [TGF], the “Cell Proliferation” value [1] was 136.00% and 148.1%, the “Total Collagen ± standard deviation (optical density)” value ([2]; control 0.152) was 0.224 ± 0.009 Abs and the “Normalized Collagen (%) (increase in collagen synthesis)” value [2] was 98.10%. For the same substance, the “Normalized Collagen (%) (increase in collagen synthesis)” value ([2]; listed as TGF-b) was 98.1%, the “Collagen (%) after normalization by the viability index” value ([2]; control = 100.00 (Table 2)) was 109.4% and the “Normalized Collagen” value ([2]; normalized by viability index, control = 100.00) was 198.10%.
